Assay results from ChEMBL document CHEMBL4152183, “Anti-inflammatory effects of flavonoids in neurodegenerative disorders” (Eur J Med Chem, 2018).

System: BV-2
Assay: Antiinflammatory activity in mouse BV2 cells assessed as inhibition of LPS-induced nitric oxide production pretreated for 1 hr followed by LPS addition and measured after 24 hrs by Griess assay
Assay type: functional, cell-based

Compound | IC50 [µM]
O=C(/C=C/c1ccc(O)c(O)c1)c1ccc(O)cc1O [BUTEIN] | 10.9
O=c1c(O)c(-c2ccc(O)c(O)c2)oc2cc(O)ccc12 [FISETIN] | 13.5
